Measurements reported in patent US5573772A, “Methods for protecting tissues and organs from ischemic damage” (priority 1994, dated 1996).

Tested on: isolated rabbit hearts
Experiment: Infarct size after 30 min coronary branch occlusion and 120 min reperfusion in isolated rabbit hearts, Example 1
Design: species or system rabbit (New Zealand white)
Conditions: for Infarct size compared with control group: ADO 10 uM or APNEA 50 nM, p<0.01
Procedure: These solutions were then diluted in Krebs buffer to the final concentration just before the experiments started. New Zealand white rabbits of either sex, between 1.4-2.4 kg, were anesthetized with intravenous sodium pentobarbital (30 mg/kg). The neck was opened and a tracheotomy was performed. The rabbits were ventilated with 100% oxygen via a positive pressure respirator (MD industries, Mobile, Ala.). Ventilation rate was 30-35 breaths per minute, and tidal volume was approximately 15 ml. A left thoracotomy was performed in the fourth intercostal space and pericardium was opened to expose the heart. A 2-0 silk suture with an RB taper needle was passed around a branch of the left coronary artery, and the end of the silk were threaded through a small vinyl tube to form a snare. The heads were quickly excised and mounted on a Langendorff apparatus and perfused at constant pressure with Krebs buffer containing (in mM) 118.5 NaCl, 4.7 KCl, 1.2 MgSO4, 1.2 K2 PO4, 24.3 NaHCO3, 2.5 CaCl2 and 10 glucose. […] The temperature of the perfusate was maintained at 37° C. The perfusion pressure was kept at 75 mm Hg. Pacing electrodes were placed on the right atrium and all hearts were paced at 200 beats/minute with pulses of 5 volts and 4 msec duration to keep the heart rate constant. A fluid-filled latex balloon connected to a transducer via PE240 tubing was inserted into the left ventricle. Balloon volume was adjusted to set the left ventricular diastolic pressure at 10 mm Hg at the beginning of the experiment. Total coronary artery flow was measured by timed collection of buffer from the chamber into a graduated cylinder. Regional ischemia was effected by pulling the snare tight and clamping the tube with a hemostat. Global ischemia was performed by clamping the inflow tubing of the Langendorff apparatus. Reperfusion was achieved by releasing the restriction. All hearts were allowed to equilibrate for 20 minutes before the experiments were started. Heart rate (HR), coronary flow (CF) and left ventricular developed pressure (LVDP) were recorded at the point just before and at the end of each treatment with the pacing momentarily turned off. […] The hearts were removed from the Langendorff apparatus, weighed and then frozen. The hearts were cut into 2 mm transverse slices. The slices were thawed and incubated in 1% triphenyl tetrazolium chloride (TTC) in pH 7.4 buffer for 20 minutes at 37° C. TTC reacts with NADH and dehydrogenase enzymes and stains all tissue still having them to a deep red color. […] After staining, the area of infarcted tissue (TTC negative tissue) and the risk zone (area lacking fluorescence under ultraviolet light) in each slice were traced. The area of infarct and risk zone were determined by planimetry of the tracing. The volume of infarcted myocardium and myocardium at risk was then calculated by multiplying the planimetered areas by the slice thickness. The animals were divided into 10 groups. The hearts in all groups were subjected to 30 minutes of coronary branch occlusion followed by 120 minutes of reperfusion. Control group (CON, n=10) only experienced the above-mentioned 30 minutes of regional ischemia while the preconditioned group (PC, n=12) received an additional 5 minutes of global ischemia plus 10 minutes of reperfusion prior to the 30 minute occlusion. In the adenosine group (ADO, n=6) and the APNEA group (APNEA, n=5), the hearts were exposed to 10 uM adenosine and 50 nM APNEA respectively, for 5 minutes as a substitute for ischemic preconditioning. The drug was allowed to washout for 10 minutes before the 30 minute ischemia was started. In groups receiving SPT, the blocker was included in the perfusate for 15 minutes at 100 uM starting 5 minutes before the exposure of ADO (ADO-SPT group, n=6) or APNEA (APNEA-SPT group, n=5) or 5 minutes before and after 5 minutes of preconditioning ischemia (PC-SPT group, n=5). […] All results are expressed as group mean±SEM. […]

In the case of `Nc1ncnc2c1ncn2[C@@H]1O[C@H](CO)[C@@H](O)[C@H]1O` [ADO, Adenosine], the “Infarct size compared with control group” value is reported as “significantly smaller than those in the control group” and the “Infarct size (area at risk infarcted)” value (ADO 10 uM, 5 minutes, control 29.4±2.9%, PC 10.8±2.8%) is reported as 11.4±2.1%.
In the case of `Nc1ccc(CCNc2ncnc3c2ncn3[C@@H]2O[C@H](CO)[C@@H](O)[C@H]2O)cc1` [APNEA, N^6-(2-(4-aminophenyl)ethyl) adenosine], the “Infarct size compared with control group” value is reported as “significantly smaller than those in the control group” and the “Infarct size (area at risk infarcted)” value (APNEA 50 nM, 5 minutes, control 29.4±2.9%) is reported as 11.9±2.3%.
For `CCCn1c(=O)c2[nH]c(C3CCCC3)nc2n(CCC)c1=O` [DPCPX, 8-cyclopentyl-1,3-dipropylxanthine], the “Infarct size (area at risk infarcted)” value (DPCPX 200 nM + ADO 10 uM (ADO-DPCPX)) was 14.4±7.0%, the “Infarct size (area at risk infarcted)” value (DPCPX 200 nM + APNEA 50 nM (APNEA-DPCPX)) was 8.7±1.7% and the “Infarct size (area at risk infarcted)” value (DPCPX 200 nM + PC (PC-DPCPX)) was 15.6±7.8%.
For `Cn1c(=O)c2[nH]c(-c3ccc(S(=O)(=O)O)cc3)nc2n(C)c1=O` [SPT, 8-(p-Sulfophenyl)-theophylline], the “Infarct size (area at risk infarcted)” value (SPT 100 uM + ADO 10 uM (ADO-SPT)) was 29.8±3.4%, the “Infarct size (area at risk infarcted)” value (SPT 100 uM + APNEA 50 nM (APNEA-SPT)) was 32.8±3.3% and the “Infarct size (area at risk infarcted)” value (SPT 100 uM + PC (PC-SPT)) was 33.8±2.4%.
